Test results reported in US20210070748A1, “INHIBITORS OF BRUTONS TYROSINE KINASE” (Pharmacyclics LLC, priority 2015, published 2021).

Assays:
Format in all cases: biochemical
JAK3 = biological target: T1, JAK3 (Homo sapiens, UniProt P52333); assay: Inhibition of a panel of kinases, in vitro HotSpot kinase assay: JAK3; settings: D-compounds panel data; 1 μM ATP; read-out: IC50 JAK3
T1 sequence (P52333 1-1124): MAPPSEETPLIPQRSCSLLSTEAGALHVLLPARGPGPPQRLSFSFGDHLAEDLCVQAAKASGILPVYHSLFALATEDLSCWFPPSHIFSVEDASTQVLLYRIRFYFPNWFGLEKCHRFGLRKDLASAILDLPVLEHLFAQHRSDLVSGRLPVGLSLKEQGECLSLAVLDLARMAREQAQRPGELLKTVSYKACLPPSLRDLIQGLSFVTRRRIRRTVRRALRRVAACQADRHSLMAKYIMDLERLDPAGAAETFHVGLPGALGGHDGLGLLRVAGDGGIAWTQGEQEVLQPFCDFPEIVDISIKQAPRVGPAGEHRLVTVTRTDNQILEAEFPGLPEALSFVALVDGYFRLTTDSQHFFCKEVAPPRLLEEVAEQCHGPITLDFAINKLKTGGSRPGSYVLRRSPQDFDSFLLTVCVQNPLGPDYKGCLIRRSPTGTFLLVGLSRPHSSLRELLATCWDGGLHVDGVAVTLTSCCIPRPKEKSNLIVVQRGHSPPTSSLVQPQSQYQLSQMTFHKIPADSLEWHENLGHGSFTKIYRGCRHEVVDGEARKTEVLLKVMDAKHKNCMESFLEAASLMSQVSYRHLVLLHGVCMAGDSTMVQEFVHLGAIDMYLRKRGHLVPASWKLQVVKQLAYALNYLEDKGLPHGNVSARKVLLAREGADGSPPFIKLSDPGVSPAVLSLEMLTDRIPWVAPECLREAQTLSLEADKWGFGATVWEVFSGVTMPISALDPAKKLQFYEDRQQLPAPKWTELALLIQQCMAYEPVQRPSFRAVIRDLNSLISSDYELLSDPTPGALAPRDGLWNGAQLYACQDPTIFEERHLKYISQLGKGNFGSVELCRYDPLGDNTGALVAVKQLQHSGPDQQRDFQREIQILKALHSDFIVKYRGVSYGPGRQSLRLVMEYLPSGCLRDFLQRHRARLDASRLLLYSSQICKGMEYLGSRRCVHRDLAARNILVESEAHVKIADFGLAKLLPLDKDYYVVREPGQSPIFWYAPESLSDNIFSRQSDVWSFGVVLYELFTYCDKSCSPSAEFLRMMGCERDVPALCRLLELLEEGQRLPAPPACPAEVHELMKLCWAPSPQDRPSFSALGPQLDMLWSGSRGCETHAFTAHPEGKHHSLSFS

ITK = biological target: T2, ITK (Homo sapiens, UniProt Q08881); assay: Inhibition of a panel of kinases, in vitro HotSpot kinase assay: ITK; settings: D-compounds panel data; 1 μM ATP
T2 sequence (Q08881 1-620): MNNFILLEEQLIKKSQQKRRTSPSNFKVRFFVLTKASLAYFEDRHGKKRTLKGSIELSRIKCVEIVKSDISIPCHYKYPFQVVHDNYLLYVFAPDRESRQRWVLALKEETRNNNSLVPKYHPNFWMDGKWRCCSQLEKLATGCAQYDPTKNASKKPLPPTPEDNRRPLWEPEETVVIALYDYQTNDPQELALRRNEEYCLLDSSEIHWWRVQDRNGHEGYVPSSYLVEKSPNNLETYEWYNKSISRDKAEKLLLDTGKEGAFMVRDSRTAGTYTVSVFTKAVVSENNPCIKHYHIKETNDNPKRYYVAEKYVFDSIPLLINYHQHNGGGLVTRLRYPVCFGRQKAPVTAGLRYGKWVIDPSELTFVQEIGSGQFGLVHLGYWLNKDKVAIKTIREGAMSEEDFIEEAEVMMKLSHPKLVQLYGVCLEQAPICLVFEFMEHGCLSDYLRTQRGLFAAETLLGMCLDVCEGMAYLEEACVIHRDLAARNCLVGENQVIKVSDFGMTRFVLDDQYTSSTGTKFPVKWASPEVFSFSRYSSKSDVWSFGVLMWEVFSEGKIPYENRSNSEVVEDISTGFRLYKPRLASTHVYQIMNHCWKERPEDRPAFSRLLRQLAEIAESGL
Method: (§1) The degree of inhibition of a panel of kinases is determined using the in vitro HotSpot kinase assay (purified enzymes, ^33P-ATP, an appropriate substrate and 1 μM ATP).

EGFR = EGFR (Homo sapiens, UniProt P00533); assay: Inhibition of a panel of kinases, in vitro HotSpot kinase assay: EGFR; settings: D-compounds panel data; 1 μM ATP
Sequence of EGFR (P00533 25-1210): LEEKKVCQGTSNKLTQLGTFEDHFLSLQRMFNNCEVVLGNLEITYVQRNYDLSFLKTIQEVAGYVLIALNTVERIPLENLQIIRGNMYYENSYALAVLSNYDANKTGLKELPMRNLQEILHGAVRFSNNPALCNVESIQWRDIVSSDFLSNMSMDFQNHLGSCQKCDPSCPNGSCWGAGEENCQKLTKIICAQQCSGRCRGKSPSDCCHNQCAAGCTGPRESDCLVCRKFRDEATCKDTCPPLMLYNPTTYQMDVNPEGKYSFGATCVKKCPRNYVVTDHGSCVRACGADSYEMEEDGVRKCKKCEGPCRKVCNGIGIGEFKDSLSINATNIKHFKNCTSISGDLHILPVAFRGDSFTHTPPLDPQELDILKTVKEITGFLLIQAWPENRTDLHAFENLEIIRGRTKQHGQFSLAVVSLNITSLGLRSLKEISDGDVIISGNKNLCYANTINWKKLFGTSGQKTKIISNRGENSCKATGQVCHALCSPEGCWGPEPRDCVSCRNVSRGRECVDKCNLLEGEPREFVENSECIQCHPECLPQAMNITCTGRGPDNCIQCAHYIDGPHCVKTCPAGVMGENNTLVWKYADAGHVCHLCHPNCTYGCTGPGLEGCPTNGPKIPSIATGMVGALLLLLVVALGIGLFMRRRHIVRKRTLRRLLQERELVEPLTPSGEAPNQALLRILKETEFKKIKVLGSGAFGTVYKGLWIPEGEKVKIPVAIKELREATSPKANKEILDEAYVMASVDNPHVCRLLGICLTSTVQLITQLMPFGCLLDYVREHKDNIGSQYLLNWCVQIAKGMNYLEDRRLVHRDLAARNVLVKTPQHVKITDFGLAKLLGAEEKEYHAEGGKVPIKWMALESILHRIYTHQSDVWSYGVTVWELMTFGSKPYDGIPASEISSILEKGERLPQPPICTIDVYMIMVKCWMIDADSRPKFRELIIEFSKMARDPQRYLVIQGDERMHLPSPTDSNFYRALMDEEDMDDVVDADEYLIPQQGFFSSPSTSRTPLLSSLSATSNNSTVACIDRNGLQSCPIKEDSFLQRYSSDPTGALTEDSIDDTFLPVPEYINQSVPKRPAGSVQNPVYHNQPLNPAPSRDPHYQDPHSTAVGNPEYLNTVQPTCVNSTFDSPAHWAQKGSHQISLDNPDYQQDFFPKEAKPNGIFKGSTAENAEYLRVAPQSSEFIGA
Method: as §1

SRC = SRC (Homo sapiens, UniProt P12931); assay: Inhibition of a panel of kinases, in vitro HotSpot kinase assay: SRC; settings: D-compounds panel data; 1 μM ATP
Sequence of SRC (P12931 whole entry): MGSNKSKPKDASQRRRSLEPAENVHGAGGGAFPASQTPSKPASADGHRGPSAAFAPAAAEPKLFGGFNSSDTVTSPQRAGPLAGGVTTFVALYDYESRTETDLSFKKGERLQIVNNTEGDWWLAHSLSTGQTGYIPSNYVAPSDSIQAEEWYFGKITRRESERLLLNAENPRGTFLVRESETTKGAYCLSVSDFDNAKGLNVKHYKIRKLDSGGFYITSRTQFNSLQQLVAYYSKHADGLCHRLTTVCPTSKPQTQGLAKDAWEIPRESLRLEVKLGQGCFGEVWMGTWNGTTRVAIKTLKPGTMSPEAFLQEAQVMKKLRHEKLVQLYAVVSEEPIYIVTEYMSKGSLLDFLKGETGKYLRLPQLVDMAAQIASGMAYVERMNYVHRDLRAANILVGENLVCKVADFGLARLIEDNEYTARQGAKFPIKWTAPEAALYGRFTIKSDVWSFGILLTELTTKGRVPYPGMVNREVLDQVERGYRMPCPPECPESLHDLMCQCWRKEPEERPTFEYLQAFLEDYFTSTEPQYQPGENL
Method: as §1

TEC = biological target: T3, TEC (Homo sapiens, UniProt P42680); assay: Inhibition of a panel of kinases, in vitro HotSpot kinase assay: TEC; settings: D-compounds panel data; 1 μM ATP
T3 sequence (P42680 1-631): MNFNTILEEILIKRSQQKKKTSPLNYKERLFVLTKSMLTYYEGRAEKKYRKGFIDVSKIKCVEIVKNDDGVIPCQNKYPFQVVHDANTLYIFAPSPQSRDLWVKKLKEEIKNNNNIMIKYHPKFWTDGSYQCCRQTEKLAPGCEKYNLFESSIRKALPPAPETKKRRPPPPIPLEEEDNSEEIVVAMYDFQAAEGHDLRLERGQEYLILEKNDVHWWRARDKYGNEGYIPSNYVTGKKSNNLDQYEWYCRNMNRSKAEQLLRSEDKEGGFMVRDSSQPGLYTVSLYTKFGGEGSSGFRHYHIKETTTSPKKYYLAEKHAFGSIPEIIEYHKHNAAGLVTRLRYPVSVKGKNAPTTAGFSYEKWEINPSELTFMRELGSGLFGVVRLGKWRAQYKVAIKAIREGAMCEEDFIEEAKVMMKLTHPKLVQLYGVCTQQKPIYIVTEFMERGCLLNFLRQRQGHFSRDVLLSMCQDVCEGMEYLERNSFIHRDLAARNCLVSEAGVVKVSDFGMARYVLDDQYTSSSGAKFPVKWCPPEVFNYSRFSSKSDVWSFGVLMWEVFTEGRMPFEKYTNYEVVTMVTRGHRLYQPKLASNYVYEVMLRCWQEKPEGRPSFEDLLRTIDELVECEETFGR
Method: as §1

IC50 (JAK3) [nM]	IC50 (ITK) [nM]	IC50 (EGFR) [nM]	IC50 (SRC) [nM]	IC50 (TEC) [nM]	Structure (SMILES)
100 to 1000	10 to 100	1000 to 10000	10 to 100	≤ 10	C[C@@H]1[C@H](NC(=O)c2ccc(C(C)(C)C)cc2)CCCN1c1nnc(C(N)=O)c(Nc2cnn(C)c2)n1 [Example D-285, 3-[(2R,3R)-3-(4-tert-butylbenzamido)-2-methylpiperidin-1-yl]-5-[(1-methyl-1H-pyrazol-4-yl)amino]-1,2,4-triazine-6-carboxamide]
1000 to 10000	10 to 100	1000 to 10000	10 to 100	10 to 100	C[C@@H]1[C@H](NC(=O)N(C)C)CCCN1c1nnc(C(N)=O)c(Nc2cnn(C)c2)n1 [Example D-286, 3-[(2R,3R)-3-[(dimethylcarbamoyl)amino]-2-methylpiperidin-1-yl]-5-[(1-methyl-1H-pyrazol-4-yl)amino]-1,2,4-triazine-6-carboxamide]
1000 to 10000	100 to 1000	> 10000	100 to 1000	≤ 10	C[C@@H]1[C@H](NC(=O)c2ccc(C3CC3)cc2)CCCN1c1cnc(C(N)=O)c(Nc2cnn(CC#N)c2)n1 [Example D-287, 3-{[1-(cyanomethyl)-1H-pyrazol-4-yl]amino}-5-[(2R,3R)-3-(4-cyclopropylbenzamido)-2-methylpiperidin-1-yl]pyrazine-2-carboxamide]
1000 to 10000	100 to 1000	1000 to 10000	10 to 100	≤ 10	C[C@@H]1[C@H](NC(=O)c2ccc(C3CC3)cc2)CCCN1c1cnc(C(N)=O)c(Nc2cnn(C3CCN(C(=O)C4CC4)CC3)c2)n1 [Example D-288, 3-{[1-(1-cyclopropanecarbonylpiperidin-4-yl)-1H-pyrazol-4-yl]amino}-5-[(2R,3R)-3-(4-cyclopropylbenzamido)-2-methylpiperidin-1-yl]pyrazine-2-carboxamide]
1000 to 10000	10 to 100	100 to 1000	≤ 10	≤ 10	C[C@@H]1[C@H](NC(=O)c2ccc(C3CC3)cc2)CCCN1c1cnc(C(N)=O)c(Nc2cnn(C3CCN(C(=O)C4(C)COC4)CC3)c2)n1 [Example D-289, 5-[(2R,3R)-3-(4-cyclopropylbenzamido)-2-methylpiperidin-1-yl]-3-({1-[1-(3-methyloxetane-3-carbonyl)piperidin-4-yl]-1H-pyrazol-4-yl}amino)pyrazine-2-carboxamide]
> 10000	> 10000	1000 to 10000	1000 to 10000	100 to 1000	C[C@@H]1[C@H](NC(=O)c2ccc(C3CC3)cc2)CCCN1c1cnc(C(N)=O)c(Nc2cnn(C)c2F)n1 [Example D-290, 5-[(2R,3R)-3-(4-cyclopropylbenzamido)-2-methylpiperidin-1-yl]-3-[(5-fluoro-1-methyl-1H-pyrazol-4-yl)amino]pyrazine-2-carboxamide]
1000 to 10000	10 to 100	100 to 1000	10 to 100	10 to 100	C[C@@H]1[C@H](NC(=O)c2ccc(C(C)(C)C)cc2)CCCN1c1cnc(C(N)=O)c(Nc2ccc(OC3CCN(C)CC3)cc2)n1 [Example D-291, 5-[(2R,3R)-3-(4-tert-butylbenzamido)-2-methylpiperidin-1-yl]-3-({4-[(1-methylpiperidin-4-yl)oxy]phenyl}amino)pyrazine-2-carboxamide]
1000 to 10000	10 to 100	100 to 1000	10 to 100	≤ 10	C[C@@H]1[C@H](NC(=O)c2ccc(C(C)(C)C#N)cc2)CCCN1c1cnc(C(N)=O)c(Nc2ccc(OC3CCN(C)CC3)cc2)n1 [Example D-292, 5-[(2R,3R)-3-[4-(1-cyano-1-methylethyl)benzamido]-2-methylpiperidin-1-yl]-3-({4-[(1-methylpiperidin-4-yl)oxy]phenyl}amino)pyrazine-2-carboxamide]
1000 to 10000	1000 to 10000	> 10000	10 to 100	10 to 100	C[C@@H]1[C@H](NC(=O)c2ccc(C3CC3)cc2)CCCN1c1cnc(C(N)=O)c(Nc2cnn(C3CCN(CC(F)(F)F)CC3)c2)n1 [Example D-293, 5-[(2R,3R)-3-(4-cyclopropylbenzamido)-2-methylpiperidin-1-yl]-3-({1-[1-(2,2,2-trifluoroethyl)piperidin-4-yl]-1H-pyrazol-4-yl}amino)pyrazine-2-carboxamide]
100 to 1000	10 to 100	100 to 1000	10 to 100	≤ 10	C[C@@H]1[C@H](NC(=O)c2ccc(C3CC3)nc2)CCCN1c1cnc(C(N)=O)c(Nc2ccc(OC3CCN(C)CC3)cc2)n1 [Example D-294, 5-[(2R,3R)-3-(6-cyclopropylpyridine-3-amido)-2-methylpiperidin-1-yl]-3-({4-[(1-methylpiperidin-4-yl)oxy]phenyl}amino)pyrazine-2-carboxamide]
100 to 1000	100 to 1000	100 to 1000	10 to 100	≤ 10	CC(=O)N1CCN(c2ccc(Nc3nc(N4CCC[C@@H](NC(=O)c5ccc(C6CC6)cc5)[C@H]4C)cnc3C(N)=O)cc2)CC1 [Example D-295, 3-{[4-(4-acetylpiperazin-1-yl)phenyl]amino}-5-[(2R,3R)-3-(4-cyclopropylbenzamido)-2-methylpiperidin-1-yl]pyrazine-2-carboxamide]
1000 to 10000	100 to 1000	100 to 1000	10 to 100	10 to 100	CC(=O)N1CCC(c2ccc(Nc3nc(N4CCC[C@@H](NC(=O)c5ccc(C6CC6)cc5)[C@H]4C)cnc3C(N)=O)cc2)CC1 [Example D-296, 3-{[4-(1-acetylpiperidin-4-yl)phenyl]amino}-5-[(2R,3R)-3-(4-cyclopropylbenzamido)-2-methylpiperidin-1-yl]pyrazine-2-carboxamide]
